{
  "source": "paper PMC6344135",
  "about": "“Analgesic effects of the cathepsin K inhibitor L-006235 in the monosodium iodoacetate model of osteoarthritis pain” (Pain Reports, 2018)",
  "origin": "cited, not measured here",
  "key": {"MIA model of OA pain": {"system": "MIA model of OA pain", "conditions": "preventative and reversal"}, "[1]": {"system": "rabbit ACLT and dog partial medial meniscectomy models", "set-up": "method as in PMID 29523155", "conditions": "once daily for 7 weeks (rabbit), 28 days (dog)"}, "surgical model of OA": {"system": "surgical model of OA", "conditions": "pain not analysed"}},
  "data": [
    {"compound": "O=P(O)(O)C(O)(Cn1ccnc1)P(=O)(O)O", "note": "[zoledronate]", "values": [
      {"measurement": "pain behaviour in MIA rats", "setting": "MIA model of OA pain", "result": "Significant preventative, and reversal, effects"}
    ]},
    {"compound": "C#C[C@@H]1CN(C(=O)[C@H](CC(C)C)NC(=O)c2ccc(-c3nc(N4CCN(C)CC4)sc3F)cc2)[C@@H]2C(=O)CO[C@H]12", "note": "[MIV-711]", "values": [
      {"measurement": "joint pathology", "setting": "[1]", "result": "prophylactic and therapeutic effects"}
    ]},
    {"compound": "NCCCC(O)(P(=O)(O)O)P(=O)(O)O", "note": "[alendronate]", "values": [
      {"measurement": "bone resorption and cartilage", "setting": "surgical model of OA", "result": "inhibited bone resorption and had chondroprotective effects"}
    ]}
  ]
}
